Data from PubChem BioAssay (NCI).
Where “and” joins values, the source holds several entries; their conditions need not be identical. Equal values may be shown once.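 Tested at 5 concentrations; 48 h exposure; 96-well plates; endpoints linearly interpolated, else capped at highest concentration. Abbreviation: GI50, concentration required for 50% inhibition of growth. Definition used: TGI = concentration required for complete inhibition of growth.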

What was measured:
Assay in all cases: NCI tumour cell line growth inhibition, 48 h
A498 renal = system: A498 renal
SK-MEL-28 melanoma = system: SK-MEL-28 melanoma
NCI-H522 lung = system: NCI-H522 lung
SW-620 colon = system: SW-620 colon
MALME-3M melanoma = system: MALME-3M melanoma
HOP-92 NSCLC = system: HOP-92 NSCLC
SR leukemia = system: SR leukemia
ACHN renal = system: ACHN renal
DU-145 prostate = system: DU-145 prostate
HS 578T breast = system: HS 578T breast

Row | SMILES | TGI (A498 renal) | TGI (SK-MEL-28 melanoma) | TGI (NCI-H522 lung) | TGI (SW-620 colon) | TGI (MALME-3M melanoma) | TGI (HOP-92 NSCLC) | TGI (SR leukemia) | TGI (ACHN renal) | TGI (DU-145 prostate) | TGI (HS 578T breast) | GI50 (NCI-H522 lung)
1 | C[N+](C)([O-])CCOc1cc2c(c3ccccc13)-c1ccccc1C2=O | 60.5 µM | 39.1 µM | 26.5 µM | 86.3 µM | 28.9 µM | > 68.5 µM |  |  |  |  | 
2 | On1c(-c2ccccc2)c(-c2ccccc2N2CCCC2)c2ccccc21 | > 100 µM | > 100 µM | > 100 µM | > 100 µM | > 100 µM | > 100 µM | > 100 µM | > 100 µM |  |  | 
3 | O=[N+]([O-])C(=C(Nc1cccc2cccnc12)Nc1cccc2cccnc12)C(Cl)=C(Cl)Cl | > 100 µM | > 100 µM | 56.3 µM | > 100 µM | > 100 µM |  | > 100 µM | > 51.1 µM | > 100 µM | > 100 µM | 
4 | C=C(C(=O)OCC)C(=O)OCC |  | > 100 µM | > 100 µM | > 100 µM | > 100 µM | > 100 µM | > 100 µM | > 100 µM | > 100 µM | > 100 µM | 
5 | N#CNC(=NCc1ccccc1)N(Cc1ccccc1)Cc1ccccc1 |  | > 31.6 µM | > 31.6 µM | > 100 µM |  | > 31.6 µM | > 72.9 µM |  | > 100 µM |  | 
6 | O=C1CC2(CCC(O)(c3ccc4ccccc4c3)C(C(=O)c3ccc4ccccc4c3)C2)C(=O)c2ccccc2N1 (stereo not drawn) | > 100 µM | > 100 µM |  | > 100 µM | > 100 µM | > 100 µM | > 100 µM |  | > 100 µM | > 100 µM | 
7 | CCOc1cc(/C=C2/C(C)=NN(c3cccc(Cl)c3)/C2=N/c2nc3ccccc3s2)ccc1O | 56.9 µM | > 100 µM | 52.7 µM | > 100 µM |  | 67.8 µM | 81.1 µM | 63.6 µM | > 100 µM | 68.6 µM | 
8 | C/C(C[n+]1ccccc1)=N\N=C(N)N | > 100 µM | > 100 µM | > 100 µM | > 100 µM | > 100 µM | > 100 µM |  | > 100 µM | > 100 µM | > 100 µM | 
9 | CCOC(=O)C1S/C(=N\C(=N)N[N+](=O)[O-])N=C1C (stereo not drawn) | > 100 µM | > 100 µM | > 100 µM | > 100 µM | > 100 µM | > 100 µM | > 100 µM | > 100 µM |  |  | 
10 | COc1ccc(C(=O)/C=C/c2ccc(OCCCOc3ccc(/C=C/C(=O)c4ccc(OC)cc4)cc3)cc2)cc1 |  | > 100 µM |  | > 100 µM |  |  | > 100 µM | > 100 µM | > 100 µM | > 100 µM | 
11 | Cc1c(/C=N\NC(=S)NCCNC(=S)N/N=C\c2c(C)n(C)n(-c3ccccc3)c2=O)c(=O)n(-c2ccccc2)n1C | > 100 µM |  |  | > 100 µM | > 100 µM | > 100 µM | > 100 µM | > 100 µM | > 100 µM | > 100 µM | 
12 | C=C1CC(C#N)(C#N)[C@H]2C3CCCC3C[C@@H]12 (stereo partly drawn) (tested in a mixture with another compound) | 48 µM | 42.4 µM |  | 29.7 µM |  | 35 µM | 53.6 µM | 61.1 µM | > 100 µM | > 100 µM | 
13 | CCNC(=S)NNC(=O)C12CC3CC(CC(C3)C1)C2 | > 100 µM | > 100 µM | > 100 µM | > 100 µM | > 100 µM |  |  | > 100 µM | > 100 µM | > 100 µM | 
14 | CNc1cc2c(c3ccccc13)C(CCl)CN2C(=O)c1cc2cc(OC)c(OC)c(OC)c2[nH]1 (stereo not drawn) | 0.00762 µM | 0.0351 µM |  | 0.00733 µM |  | 0.0466 µM | 0.00402 µM | 0.00154 µM |  | 0.0379 µM | 
15 | Cc1ccc(C2=CC(=O)OC(C[P+](c3ccccc3)(c3ccccc3)c3ccccc3)(c3ccccc3)O2)cc1 (stereo not drawn) | 29.1 µM | 33.5 µM | 26 µM |  | 30.5 µM |  | 61.2 µM | 39.8 µM | 30.3 µM | 42.6 µM | 
16 | COC(=O)C(Cc1ccc2c(c1)CCC2)Cc1ccc2c(c1)CCC2 | > 100 µM | > 100 µM | > 100 µM | > 100 µM |  | > 100 µM | > 100 µM | > 100 µM | > 100 µM | > 100 µM | 
17 | O=C(NCP(=O)(Oc1ccccc1)Oc1ccccc1)OCc1ccccc1 |  | > 100 µM | > 100 µM | > 100 µM | > 100 µM | > 100 µM | > 100 µM | > 100 µM |  | > 100 µM | 
18 | O=C1NC(N2CCOCC2)=N/C1=C\c1ccco1 |  | > 100 µM | > 100 µM | > 100 µM |  | > 100 µM | > 100 µM | > 100 µM | > 100 µM | > 100 µM | 
19 | O=C(O)COc1ccccc1C(=O)Nc1ccccc1 |  | > 100 µM | > 100 µM | > 100 µM | > 100 µM | > 100 µM | > 100 µM | > 100 µM |  |  | 
20 | COc1ccc(C2OC(c3ccncc3)=NN2C)cc1F (stereo not drawn) | > 100 µM | > 100 µM | > 100 µM | > 100 µM | > 100 µM | > 100 µM |  | > 100 µM | > 100 µM | > 100 µM | 
21 | O=C(/C=C/c1ccccc1)Oc1ccc(C(=O)/C=C/c2ccccc2)cc1 |  | 21.3 µM | 23.6 µM | 18.6 µM |  | 39 µM | 6.82 µM | 18.3 µM | 14.9 µM | 69.4 µM | 
22 | O=C1OCC/C1=N/O | > 100 µM | > 100 µM | > 100 µM | > 100 µM | > 100 µM | > 100 µM | > 100 µM | > 100 µM |  |  | 
23 | CCOC(=O)N1CCC(N[C@@H]2c3cc4c(cc3C(c3cc(OC)c(O)c(OC)c3)C3C(=O)OC[C@@H]32)OCO4)CC1 (stereo partly drawn) | 1.89 µM and 2.08 µM | 27.1 µM and 16.4 µM | 7.72 µM and 7.21 µM | 13.7 µM and 7.55 µM | 9.79 µM and 9.69 µM | 3.5 µM and 3.67 µM | 3.21 µM and > 25 µM | 1.63 µM and 1.86 µM |  |  | 1.41 µM and 3.08 µM
24 | CCCCCCCCCCCC[S+](C)C | 28.1 µM | 25.3 µM | 15.6 µM | 30.2 µM | 22.4 µM | 9.48 µM | > 100 µM | 19.4 µM | 17.6 µM |  | 
25 | O=C(O)C(Cl)(Cl)Cl |  | > 100 µM |  | > 100 µM | > 100 µM | > 100 µM | > 100 µM | > 100 µM |  |  | 
